Measurements taken from patent US6994283B1, “Method for pulverizing to fine powder” (Nippon Shinyaku Co., Ltd., priority 1999, dated 2006).

How the values were obtained:
[1] = Determination of particle diameter (ultracentrifugal automatic particle size distribution analyzer, silicone oil dispersion); type: physicochemical
Description: Determination of Particle Diameter
Twenty (20) mg each of the pre-pulverized present compound and the pulverizates of the compound as obtained in Examples 1 and 2 and Comparative Example 1 was taken in a test tube and 5 ml of silicone oil (product of Shin-Etsu Chemical Co.) was added. The mixture was stirred with a bench-top mixer for 20 seconds and further dispersed with a bench-top supersonic washer (UT-51N, product of Sharp Corporation) for 5 minutes. Then, the particle size distribution was determined with an ultracentrifugal automatic particle size distribution analyzer (CAPA-700, manufactured by Horiba, Ltd.).

[2] = Confirmation of crystalline state by powder X-ray diffraction; type: physicochemical; settings: after a pulverization time of 60 minutes, mill of the closed-circuit pulverizing type
Description: Confirmation of Crystalline State
Using each of the unpulverized present compound and the pulverizates of the same compound as obtained in Examples 1 and 2 and Comparative Example 1, the powder X-ray diffraction pattern was recorded with a powder x-ray diffraction analyzer (RAD-2B, manufactured by Rigaku Denki).
It will be apparent from the drawings that the pulverizates as micronized with a mill of the open-circuit pulverizing type retained the crystalline form, showing X-ray diffraction peaks.

[3] = Administration experiment (in vivo): oral capsule, plasma concentration of the metabolite by HPLC; settings: 4 male crab-eating monkeys, capsule of Example 1 pulverizate versus capsule of unpulverized compound
Source text: Administration Experiment (in vivo)
A capsule prepared using the unpulverized present compound and a capsule prepared using the pulverizate obtained in Example 1 (the present pulverizate) according to the physical blending formula shown in Table 2 were respectively administered orally to 4 crab-eating monkeys (male, aged 6˜9 years). The blood was serially sampled and the plasma concentration of the metabolite of the present compound [(E)-4-[2-[2-[N-(4-methoxybenzenesulfonyl)amino]phenyl]-ethenyl]pyridine 1-oxide] was determined by HPLC.
The abscissa represents time (hrs) and the ordinate represents the plasma concentration (μg/ml) of the metabolite.

[4] = after 120 min. pulverization, planetary ball-mill
[5] = before pulverization (bulk powder)

Row | SMILES | Mean particle diameter ([1]; after 30 min. pulverization, planetary ball-mill) | Mean particle diameter ([1]; after 60 min. pulverization, planetary ball-mill) | Fraction of particles ≧30 μm [1, 4] | Mean particle diameter [1, 4] | Fraction of particles ≧30 μm [1, 5] | Fraction of particles ≧50 μm [1, 5] | Mean particle diameter [1, 5] | Crystalline state (X-ray diffraction peaks) [2] | Fraction of particles ≧30 μm ([1]; after pulverization) | Mean particle diameter ([1]; after pulverization) | Fraction of particles ≧50 μm ([1]; after pulverization) | Plasma concentration (metabolite determined by HPLC) [3]
1 | COc1ccc(S(=O)(=O)N(C(C)=O)c2ccccc2/C=C/c2cc[n+]([O-])cc2)cc1 [Comparative Example, (E)-4-[2-[2-[N-acetyl-N-(4-methoxybenzenesulfonyl)amino]phenyl]ethenyl]-pyridine 1-oxide] | 15.1 μm | 12.4 μm | 0% | 10.7 ± 4.5 μm | 35.5% | 20.4% | 25.9 ± 43.3 μm | changed to a non-crystalline compound showing no X-ray diffraction peaks | – | – | – | –
2 | COc1ccc(S(=O)(=O)N(C(C)=O)c2ccccc2/C=C/c2cc[n+]([O-])cc2)cc1 [Example 1, (E)-4-[2-[2-[N-acetyl-N-(4-methoxybenzenesulfonyl)amino]phenyl]ethenyl]-pyridine 1-oxide] | – | – | – | – | 35.5% | 20.4% | 25.9 ± 43.3 μm | – | 0% | 9.7 ± 4.3 μm | – | –
3 | COc1ccc(S(=O)(=O)N(C(C)=O)c2ccccc2/C=C/c2cc[n+]([O-])cc2)cc1 [Example 2, (E)-4-[2-[2-[N-acetyl-N-(4-methoxybenzenesulfonyl)amino]phenyl]ethenyl]-pyridine 1-oxide] | – | – | – | – | 26.6% | 12.8% | 24.2 ± 31.2 μm | – | 6.8% | 15.2 ± 6.8 μm | 0% | –
4 | COc1ccc(S(=O)(=O)N(C(C)=O)c2ccccc2/C=C/c2cc[n+]([O-])cc2)cc1 [the present compound, (E)-4-[2-[2-[N-acetyl-N-(4-methoxybenzenesulfonyl)amino]phenyl]ethenyl]-pyridine 1-oxide] | – | – | – | – | – | – | – | – | – | – | – | significantly increased
